Results taken from PMC12112332, “Characterization of Novel and Known Activators of Cannabinoid Receptor Subtype 2 Reveals Mixed Pharmacology That Differentiates Mycophenolate Mofetil and GW-842,166X from MDA7” (International Journal of Molecular Sciences, 2025).

How the values were obtained:
rat CB2 [1] = target: T1, rat CB2 (Rattus norvegicus, UniProt Q9QZN9); experiment: [3H]CP55,940 radioligand competition binding, membranes of HEK/GIRK cells expressing rat CB2; design: expressed in transfected cells; host or cells: HEK293 cells stably co-expressing GIRK1/2 channels; conditions: for rCB2 Binding Affinity pKi ± SEM: 0.5 nM [3H]CP55,940, equilibrium; for rCB2 Binding % Max ± SEM: % of specific [3H]CP55,940 binding
T1 sequence (Q9QZN9 1-360): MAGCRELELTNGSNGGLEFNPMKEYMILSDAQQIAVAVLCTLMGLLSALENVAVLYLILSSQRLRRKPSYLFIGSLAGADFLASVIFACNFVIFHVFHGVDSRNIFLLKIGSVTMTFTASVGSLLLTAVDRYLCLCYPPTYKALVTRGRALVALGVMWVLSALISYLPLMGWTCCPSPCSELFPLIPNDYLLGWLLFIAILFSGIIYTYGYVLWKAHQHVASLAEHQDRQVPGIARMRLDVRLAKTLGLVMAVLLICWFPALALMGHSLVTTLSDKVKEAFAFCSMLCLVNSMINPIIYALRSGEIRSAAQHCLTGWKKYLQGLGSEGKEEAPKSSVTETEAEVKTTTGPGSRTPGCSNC
Source text: Agonists that bind to the receptor at the site occupied by the endogenous ligand (2-AG in this case) are considered orthosteric agonists. It is also possible for an agonist to bind and activate a receptor via a site other than the orthosteric site; these ligands are classified as allosteric agonists. To characterize the nature of the agonist activity of mycophenolate mofetil, we tested its ability to bind to the receptor in equilibrium binding assays using membranes harvested from cells expressing rCB2 using the radioligand [^3H]CP55,940 [40, 60]. CP55,940 has an affinity for both CB1 and CB2 receptors in the low nM range and is reported to bind to the site occupied by 2-AG [61].
Competition binding concentration–response curves were obtained in the presence of 0.5 nM [^3H]CP55,940 using membranes harvested from HEK/GIRK cells expressing rCB2. Data represent the mean ± SEM of three independent experiments run in triplicate. Data are plotted as a percentage of specific [^3H]CP55,940 binding. Non-specific binding was determined in the presence of 10 µM CP55,940.
Membranes were made from HEK/GIRK cells stably expressing rat CB2. Radioligand competition binding assays were performed as previously described, with minor modifications. In brief, compounds were serially diluted into assay buffer with 0.1% bovine serum albumin (BSA) and added to each well of a 96-well plate, along with 20 μg/well cell membrane and approximately 500 pM [^3H]-CP55,940 (specific activity = 104 Ci/mmol, PerkinElmer, Waltham, MA, USA). Following a 3-h incubation period on a shaker at room temperature, membrane-bound ligand was separated from free ligand by filtration through glass fiber 96-well filter plates (Unifilter-96, GF/B; PerkinElmer, Waltham, MA, USA). Forty microliters of scintillation fluid were added to each well, and membrane-bound radioactivity was determined by scintillation counting (Microbeta2; Revvity, Waltham, MA, USA). Nonspecific binding was determined using 10 μM of cold CP55,940.

rat CB2 [2] = target: T1, rat CB2; experiment: β-arrestin recruitment assay (PathHunter, Eurofins) in rat CB2 cells; type: cell-based; design: expressed in transfected cells; conditions: for rCB2 β-Arrestin (−) CP55,940 % Max / rCB2 β-Arrestin (+) CP55,940 % Max: % of maximal CP55,940 response
Experimental: Assays were performed by Eurofins Discovery (Freemont, CA, USA). PathHunter cell lines were expanded from freezer stocks according to standard procedures. Rat CB2 cells were seeded in a total volume of 20 μL into white-walled, 384-well microplates and incubated at 37 °C for the appropriate time prior to testing. For agonist determination, cells were incubated with the sample to induce a response. Intermediate dilution of sample stocks was performed to generate a 5× sample in assay buffer. A total of 5 μL of 5× sample was added to the cells and incubated at 37 °C or room temperature for at least 120 min. The final assay vehicle concentration was 1%. For allosteric modulator determination, cells were pre-incubated with the sample followed by agonist challenge at the EC20. Intermediate dilution of sample stocks was performed to generate a 5× sample in assay buffer. A total of 5 μL of 5× sample was added to cells and incubated at 37 °C or room temperature for 15 min. Vehicle concentration was 1%. Then, 5 μL of 6× EC20 agonist in assay buffer was added to the cells and incubated at 37 °C or room temperature for at least 120 min.
The assay signal was generated through a single addition of 15 μL (50% v/v) of PathHunter Detection reagent cocktail, followed by a one-hour incubation at room temperature. Microplates were read following signal generation with a PerkinElmer Envision^TM instrument for chemiluminescent signal detection.
Compound activity was analyzed using the CBIS data analysis suite (ChemInnovation). For agonist mode assays, percentage activity was calculated using the following formula: % Activity = 100% × (mean RLU of test sample − mean RLU of vehicle control)/(mean MAX control ligand − mean RLU of vehicle control).
For positive allosteric mode assays, percentage modulation was calculated using the following formula: % Modulation = 100% × ((mean RLU of test sample − mean RLU of EC20 control)/(mean RLU of MAX control ligand − mean RLU of EC20 control)).

[3] = rCB2 β-Arrestin (+) CP55,940 pEC50, presence of EC20 CP55,940
[4] = rCB2 β-Arrestin (−) CP55,940 pEC50, absence of CP55,940

With `O=C(NCC1CCOCC1)c1cnc(Nc2ccc(Cl)cc2Cl)nc1C(F)(F)F` [GW-842,166X, 2-(2,4-dichloroanilino)-N-(oxan-4-ylmethyl)-4-(trifluoromethyl)pyrimidine-5-carboxamide] the EC50 (rat CB2 [1]) was > 10000 nM, the “rCB2 Binding Affinity pKi ± SEM” value (rat CB2 [1]) was “Incomplete” and the “rCB2 Binding % Max ± SEM” value (rat CB2 [1]; 0.5 nM [3H]CP55,940) was 22 ± 2%. For the same compound, the “rCB2 β-Arrestin (−) CP55,940 % Max” value (rat CB2 [2]; absence of CP55,940) was 97%, the “rCB2 β-Arrestin (+) CP55,940 % Max” value (rat CB2 [2]; presence of EC20 CP55,940) was 120% and the EC50 (rat CB2 [2]; [3]) was 631 nM. For the same compound, the EC50 (rat CB2 [2]; [4]) was 162 nM.

In the case of `CC1(Cc2ccccc2)COc2cc(C(=O)N3CCCCC3)ccc21` (centres unmarked) [MDA7, 1-[(3-benzyl-3-methyl-2,3-dihydro-1-benzofuran-6-yl)carbonyl]piperidine], the Ki (rat CB2 [1]) is reported as 251 nM, the “rCB2 Binding % Max ± SEM” value (rat CB2 [1]; 0.5 nM [3H]CP55,940) is reported as 5.3 ± 1.7% and the “rCB2 β-Arrestin (−) CP55,940 % Max” value (rat CB2 [2]; absence of CP55,940) is reported as 38%. The “rCB2 β-Arrestin (+) CP55,940 % Max” value (rat CB2 [2]; presence of EC20 CP55,940) was 40%, the EC50 (rat CB2 [2]; [3]) was > 10000 nM and the EC50 (rat CB2 [2]; [4]) was 47.9 nM.

In the case of `COc1c(C)c2c(c(O)c1C/C=C(\C)CCC(=O)OCCN1CCOCC1)C(=O)OC2` [Mycophenolate mofetil], the “rCB2 Binding Affinity pKi ± SEM” value (rat CB2 [1]) is reported as “Incomplete”, the “rCB2 Binding % Max ± SEM” value (rat CB2 [1]; 0.5 nM [3H]CP55,940) is reported as 20 ± 1% and the EC50 (rat CB2 [1]; 0.5 nM [3H]CP55,940, tested up to 30 µM, read-out: rCB2 Binding pEC50 (incomplete displacement) (converted)) is reported as > 10000 nM. The “rCB2 β-Arrestin (−) CP55,940 % Max” value (rat CB2 [2]; absence of CP55,940) was 114%, the EC50 (rat CB2 [2]; absence of CP55,940, read-out: rCB2 β-Arrestin (−) CP55,940 pEC50 (converted)) was 1150 nM and the “rCB2 β-Arrestin (+) CP55,940 % Max” value (rat CB2 [2]; presence of EC20 CP55,940) was 113%. It also gave an EC50 (rat CB2 [2]; presence of EC20 CP55,940, read-out: rCB2 β-Arrestin (+) CP55,940 pEC50 (converted)) of 1350 nM.
